Literature values as cited in patent US20070166816A1, “Assay device that analyzes the absorption, metabolism, permeability and/or toxicity of a candidate compound” (Surface Logix, Inc., priority 2002, published 2007).

Assays:
Caco-2 cells = conditions: previously characterized in Caco-2 assays; qualitative grade
[1] = previously characterized in humans; qualitative grade

Row | Absorbance in vitro (Caco-2 cells) | Absorbance in vivo [1] | Compound
1 | Very High | Low | O=c1[nH]cc(F)c(=O)[nH]1 [5-Fluorouracil]
2 | Low |  | NS(=O)(=O)c1cc2c(cc1Cl)N=CNS2(=O)=O [Chlorothiazide]
3 |  | Moderate | NS(=O)(=O)c1cc(C(=O)O)c(NCc2ccco2)cc1Cl [Furosemide]
4 | Low | Very low | OC[C@@H](O)[C@@H](O)[C@H](O)[C@H](O)CO [Mannitol-reference, Mannitol]
5 | Moderate |  | CC(C)NCC(O)COc1cccc2ccccc12 (stereo not drawn) [Propranolol--reference, Propranolol]

Row | Compound | Absorbance in vitro (Caco-2 cells) | Absorbance in vivo [1]
6 | COc1ccc2cc([C@H](C)C(=O)O)ccc2c1 [Naproxein] | High | High
